Laboratory results reported in PubChem BioAssay (NCI).
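Exposure lasted 48 hours, with cells grown in 96-well plates and compounds tested at five concentrations. GI50 is the concentration that inhibits growth by half. TGI marks complete inhibition of growth.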

What was measured:
Assay in all cases: NCI anticancer screen, dose series, 48 h
786-0 renal = tested on: 786-0 renal
A549 NSCLC = tested on: A549 NSCLC
ACHN renal = tested on: ACHN renal
BT-549 breast = tested on: BT-549 breast
CAKI-1 renal = tested on: CAKI-1 renal
CCRF-CEM leukemia = tested on: CCRF-CEM leukemia
COLO 205 colon = tested on: COLO 205 colon
EKVX NSCLC = tested on: EKVX NSCLC
HCC-2998 colon = tested on: HCC-2998 colon
HCT-116 colon = tested on: HCT-116 colon
HCT-15 colon = tested on: HCT-15 colon
HL-60(TB) leukemia = tested on: HL-60(TB) leukemia
HOP-62 NSCLC = tested on: HOP-62 NSCLC
HOP-92 NSCLC = tested on: HOP-92 NSCLC
HS 578T breast = tested on: HS 578T breast
HT29 colon = tested on: HT29 colon
IGROV1 ovarian = tested on: IGROV1 ovarian
K-562 leukemia = tested on: K-562 leukemia
KM12 colon = tested on: KM12 colon
LOX IMVI melanoma = tested on: LOX IMVI melanoma
M14 melanoma = tested on: M14 melanoma
MCF7 breast = tested on: MCF7 breast
MDA-MB-435 = tested on: MDA-MB-435
MOLT-4 leukemia = tested on: MOLT-4 leukemia
NCI-H226 lung = tested on: NCI-H226 lung
NCI-H23 lung = tested on: NCI-H23 lung
NCI-H460 lung = tested on: NCI-H460 lung
NCI-H522 lung = tested on: NCI-H522 lung
OVCAR-3 ovarian = tested on: OVCAR-3 ovarian
OVCAR-5 ovarian = tested on: OVCAR-5 ovarian
OVCAR-8 ovarian = tested on: OVCAR-8 ovarian
PC-3 prostate = tested on: PC-3 prostate
RPMI-8226 leukemia = tested on: RPMI-8226 leukemia
RXF 393 renal = tested on: RXF 393 renal
SF-268 CNS = tested on: SF-268 CNS
SF-295 CNS = tested on: SF-295 CNS
SK-MEL-2 melanoma = tested on: SK-MEL-2 melanoma
SK-MEL-28 melanoma = tested on: SK-MEL-28 melanoma
SK-MEL-5 melanoma = tested on: SK-MEL-5 melanoma
SN12C renal = tested on: SN12C renal
SNB-19 CNS = tested on: SNB-19 CNS
SW-620 colon = tested on: SW-620 colon
T-47D breast = tested on: T-47D breast
TK-10 renal = tested on: TK-10 renal
U251 CNS = tested on: U251 CNS
UACC-257 melanoma = tested on: UACC-257 melanoma
UACC-62 melanoma = tested on: UACC-62 melanoma
UO-31 renal = tested on: UO-31 renal
MDA-MB-231 breast = tested on: MDA-MB-231 breast
NCI/ADR-RES ovarian = tested on: NCI/ADR-RES ovarian
SF-539 CNS = tested on: SF-539 CNS
SK-OV-3 ovarian = tested on: SK-OV-3 ovarian
SNB-75 CNS = tested on: SNB-75 CNS
A498 renal = tested on: A498 renal
DU-145 prostate = tested on: DU-145 prostate
MALME-3M melanoma = tested on: MALME-3M melanoma
OVCAR-4 ovarian = tested on: OVCAR-4 ovarian
SR leukemia = tested on: SR leukemia

Compound: COc1ccc(OC)c(-c2cc(-c3ccc(Cl)cc3)nn2-c2ccc(S(=O)(=O)NC(C)=O)cc2)c1
- GI50 (786-0 renal): 3.03 µM
- TGI (786-0 renal): 12.1 µM
- GI50 (A549 NSCLC): 28.6 µM
- TGI (A549 NSCLC): > 100 µM
- GI50 (ACHN renal): 3.23 µM
- TGI (ACHN renal): 11.1 µM
- GI50 (BT-549 breast): 4.26 µM
- TGI (BT-549 breast): 14.7 µM
- GI50 (CAKI-1 renal): 37.6 µM
- TGI (CAKI-1 renal): > 100 µM
- GI50 (CCRF-CEM leukemia): 20 µM
- TGI (CCRF-CEM leukemia): 73.5 µM
- GI50 (COLO 205 colon): 18.2 µM
- TGI (COLO 205 colon): 46.7 µM
- GI50 (EKVX NSCLC): 14.3 µM
- TGI (EKVX NSCLC): 28 µM
- GI50 (HCC-2998 colon): 1.71 µM
- TGI (HCC-2998 colon): 6.93 µM
- GI50 (HCT-116 colon): 2.84 µM
- TGI (HCT-116 colon): 11.2 µM
- GI50 (HCT-15 colon): 3.29 µM
- TGI (HCT-15 colon): 18.8 µM
- GI50 (HL-60(TB) leukemia): 3.7 µM
- TGI (HL-60(TB) leukemia): 41.9 µM
- GI50 (HOP-62 NSCLC): 10.5 µM
- TGI (HOP-62 NSCLC): 22.2 µM
- GI50 (HOP-92 NSCLC): 10.2 µM
- TGI (HOP-92 NSCLC): 33.2 µM
- GI50 (HS 578T breast): 38.2 µM
- TGI (HS 578T breast): > 100 µM
- GI50 (HT29 colon): 5.54 µM
- TGI (HT29 colon): > 100 µM
- GI50 (IGROV1 ovarian): 37.2 µM
- TGI (IGROV1 ovarian): > 100 µM
- GI50 (K-562 leukemia): 3.18 µM
- TGI (K-562 leukemia): > 100 µM
- GI50 (KM12 colon): 20.3 µM
- TGI (KM12 colon): 46.2 µM
- GI50 (LOX IMVI melanoma): 1.79 µM
- TGI (LOX IMVI melanoma): 3.65 µM
- GI50 (M14 melanoma): 3.04 µM
- TGI (M14 melanoma): 8.21 µM
- GI50 (MCF7 breast): 26.4 µM
- TGI (MCF7 breast): > 100 µM
- GI50 (MDA-MB-435): 45.3 µM
- TGI (MDA-MB-435): > 100 µM
- GI50 (MOLT-4 leukemia): 5.62 µM
- TGI (MOLT-4 leukemia): 27.8 µM
- GI50 (NCI-H226 lung): 4.07 µM
- TGI (NCI-H226 lung): 23.1 µM
- GI50 (NCI-H23 lung): 11.3 µM
- TGI (NCI-H23 lung): 25.6 µM
- GI50 (NCI-H460 lung): 29.3 µM
- TGI (NCI-H460 lung): > 100 µM
- GI50 (NCI-H522 lung): 32.4 µM
- TGI (NCI-H522 lung): > 100 µM
- GI50 (OVCAR-3 ovarian): 25.4 µM
- TGI (OVCAR-3 ovarian): 64.7 µM
- GI50 (OVCAR-5 ovarian): 5.97 µM
- TGI (OVCAR-5 ovarian): 19.3 µM
- GI50 (OVCAR-8 ovarian): 21 µM
- TGI (OVCAR-8 ovarian): 84.3 µM
- GI50 (PC-3 prostate): 3.61 µM
- TGI (PC-3 prostate): 21.9 µM
- GI50 (RPMI-8226 leukemia): 4.75 µM
- TGI (RPMI-8226 leukemia): 7.5 µM
- GI50 (RXF 393 renal): 23.1 µM
- TGI (RXF 393 renal): > 100 µM
- GI50 (SF-268 CNS): 21.1 µM
- TGI (SF-268 CNS): 60.9 µM
- GI50 (SF-295 CNS): 42.8 µM
- TGI (SF-295 CNS): > 100 µM
- GI50 (SK-MEL-2 melanoma): 26.6 µM
- TGI (SK-MEL-2 melanoma): 70 µM
- GI50 (SK-MEL-28 melanoma): 21.3 µM
- TGI (SK-MEL-28 melanoma): 57.9 µM
- GI50 (SK-MEL-5 melanoma): 2.07 µM
- TGI (SK-MEL-5 melanoma): 15.5 µM
- GI50 (SN12C renal): 3.02 µM
- TGI (SN12C renal): 10.9 µM
- GI50 (SNB-19 CNS): 10.6 µM
- TGI (SNB-19 CNS): 28.7 µM
- GI50 (SW-620 colon): 5.39 µM
- TGI (SW-620 colon): 22.2 µM
- GI50 (T-47D breast): 13.1 µM
- TGI (T-47D breast): 36.1 µM
- GI50 (TK-10 renal): 19.3 µM
- TGI (TK-10 renal): 38.2 µM
- GI50 (U251 CNS): 2.9 µM
- TGI (U251 CNS): 10.3 µM
- GI50 (UACC-257 melanoma): 16.8 µM
- TGI (UACC-257 melanoma): 34.2 µM
- GI50 (UACC-62 melanoma): 3.22 µM
- TGI (UACC-62 melanoma): 11.2 µM
- GI50 (UO-31 renal): 34.8 µM
- TGI (UO-31 renal): > 100 µM

Compound: Nc1nc(Cl)c(N=Nc2ccc(Cl)cc2)c(NCC2(CO)CCC2)n1
- GI50 (786-0 renal): 10.2 µM
- GI50 (ACHN renal): 41 µM
- GI50 (BT-549 breast): 49.8 µM
- GI50 (CAKI-1 renal): 2.27 µM
- GI50 (EKVX NSCLC): 21.7 µM
- GI50 (HCT-116 colon): 36.8 µM
- GI50 (HOP-62 NSCLC): 42 µM
- TGI (HOP-62 NSCLC): 82.6 µM
- GI50 (HOP-92 NSCLC): 14.9 µM
- TGI (HOP-92 NSCLC): 64.9 µM
- GI50 (HS 578T breast): 32.9 µM
- GI50 (LOX IMVI melanoma): 41 µM
- GI50 (M14 melanoma): 98.9 µM
- GI50 (MCF7 breast): 25.3 µM
- GI50 (MDA-MB-231 breast): 8.74 µM
- TGI (MDA-MB-231 breast): 51.1 µM
- GI50 (NCI-H226 lung): 77 µM
- GI50 (NCI-H23 lung): 48 µM
- GI50 (NCI/ADR-RES ovarian): 41.8 µM
- GI50 (OVCAR-8 ovarian): 26.8 µM
- TGI (OVCAR-8 ovarian): 88.8 µM
- GI50 (RXF 393 renal): 36.5 µM
- TGI (RXF 393 renal): 61.6 µM
- GI50 (SF-268 CNS): 46.3 µM
- GI50 (SF-295 CNS): 49.4 µM
- GI50 (SF-539 CNS): 90.7 µM
- GI50 (SK-MEL-2 melanoma): 89.3 µM
- GI50 (SK-OV-3 ovarian): 12.6 µM
- GI50 (SNB-19 CNS): 33.7 µM
- GI50 (SNB-75 CNS): 7.05 µM
- TGI (SNB-75 CNS): 30.1 µM
- GI50 (T-47D breast): 26.4 µM
- GI50 (U251 CNS): 41.1 µM

Compound: CN(CCNCc1cn(C)c2c1ccc1ccccc12)CCNCc1cn(C)c2c1ccc1ccccc12
- TGI (786-0 renal): 1.83 µM
- TGI (A498 renal): 13.9 µM
- TGI (A549 NSCLC): 2.31 µM
- TGI (ACHN renal): 2.97 µM
- TGI (CCRF-CEM leukemia): 2.21 µM
- TGI (COLO 205 colon): 2.33 µM
- TGI (DU-145 prostate): 2.76 µM
- TGI (HCT-116 colon): 2.33 µM
- TGI (HCT-15 colon): 2.5 µM
- TGI (HOP-92 NSCLC): 3.38 µM
- TGI (HT29 colon): 2.77 µM
- TGI (IGROV1 ovarian): 3.24 µM
- TGI (KM12 colon): 2.32 µM
- TGI (M14 melanoma): 0.904 µM
- TGI (MALME-3M melanoma): 3.61 µM
- TGI (MDA-MB-231 breast): 2.99 µM
- TGI (MDA-MB-435): 2.86 µM
- TGI (MOLT-4 leukemia): 2.81 µM
- TGI (NCI-H23 lung): 2.67 µM
- TGI (NCI-H460 lung): > 100 µM
- TGI (NCI-H522 lung): 2.86 µM
- TGI (NCI/ADR-RES ovarian): 2.54 µM
- TGI (OVCAR-4 ovarian): 2.64 µM
- TGI (OVCAR-8 ovarian): 3.34 µM
- TGI (PC-3 prostate): 2.57 µM
- TGI (RPMI-8226 leukemia): > 100 µM
- TGI (RXF 393 renal): 1.71 µM
- TGI (SF-539 CNS): 3.16 µM
- TGI (SK-MEL-28 melanoma): 2.84 µM
- TGI (SNB-19 CNS): 2.3 µM
- TGI (SR leukemia): 2.88 µM
- TGI (SW-620 colon): 2.57 µM
- TGI (U251 CNS): 2.11 µM
- TGI (UACC-257 melanoma): 3.03 µM
